{
  "source": "patent US10710978B2",
  "about": "“STK4 inhibitors for treatment of hematologic malignancies” (Dana-Farber Cancer Institute, Inc., priority 2015, dated 2020)",
  "assay_in_all_cases": "KiNativ assay",
  "assay_type_in_all_cases": "binding",
  "conditions_in_all_cases": "H929 live cell",
  "key": {"[1]": {"target": "PIK3CG (Homo sapiens (Human), UniProt P48736)", "description": "(§1) Biochemical IC50s of the compounds of the present disclosure against various kinases were measured in a KiNativ assay. Compounds were screened in duplicate at 10 μM in H929 live cell. IC50 was measured via Mass spectroscopy (MS)."}, "[2]": {"target": "DGKH (Homo sapiens (Human), UniProt Q86XP1)", "description": "as §1"}, "[3]": {"system": "ZC1/HGK, ZC2/TNIK, ZC3/MINK", "description": "as §1"}, "[4]": {"target": "IRAK4 (Homo sapiens (Human), UniProt Q9NWZ3)", "sequence (Q9NWZ3 whole entry)": "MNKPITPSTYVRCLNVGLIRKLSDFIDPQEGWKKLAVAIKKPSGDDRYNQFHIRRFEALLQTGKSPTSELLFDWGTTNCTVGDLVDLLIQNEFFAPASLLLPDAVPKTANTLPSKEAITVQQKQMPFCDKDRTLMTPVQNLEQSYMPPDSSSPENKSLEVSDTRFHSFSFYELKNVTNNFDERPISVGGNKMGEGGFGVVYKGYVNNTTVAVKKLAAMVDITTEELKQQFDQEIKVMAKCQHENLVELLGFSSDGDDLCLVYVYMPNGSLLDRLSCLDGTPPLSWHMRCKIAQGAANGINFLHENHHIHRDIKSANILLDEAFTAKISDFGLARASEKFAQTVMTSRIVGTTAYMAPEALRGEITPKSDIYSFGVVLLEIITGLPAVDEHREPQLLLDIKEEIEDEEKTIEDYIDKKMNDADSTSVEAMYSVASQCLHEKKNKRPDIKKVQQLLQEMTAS", "description": "as §1"}, "[5]": {"target": "GSK3B (Homo sapiens (Human), UniProt P49841)", "sequence (P49841 whole entry)": "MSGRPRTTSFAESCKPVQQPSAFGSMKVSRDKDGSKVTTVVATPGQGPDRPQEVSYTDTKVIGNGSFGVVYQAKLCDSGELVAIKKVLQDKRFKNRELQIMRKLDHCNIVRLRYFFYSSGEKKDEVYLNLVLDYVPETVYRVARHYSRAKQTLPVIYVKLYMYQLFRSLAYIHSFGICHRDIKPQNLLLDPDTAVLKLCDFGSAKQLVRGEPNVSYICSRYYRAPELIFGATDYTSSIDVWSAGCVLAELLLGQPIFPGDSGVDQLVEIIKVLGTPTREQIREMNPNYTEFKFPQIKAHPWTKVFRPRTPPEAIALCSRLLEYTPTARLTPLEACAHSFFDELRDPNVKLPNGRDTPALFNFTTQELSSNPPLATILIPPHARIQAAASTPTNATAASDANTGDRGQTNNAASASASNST", "description": "as §1"}, "[6]": {"target": "LYN (Homo sapiens (Human), UniProt P07948)", "description": "as §1"}, "[7]": {"target": "KHS1 (Homo sapiens (Human), UniProt Q9Y4K4)", "description": "as §1"}, "[8]": {"target": "OSR1 (Homo sapiens (Human), UniProt O95747)", "description": "as §1"}, "[9]": {"target": "CaMKK2 (Homo sapiens (Human), UniProt Q96RR4)", "description": "as §1"}, "[10]": {"target": "MAP2K5 (Homo sapiens (Human), UniProt Q13163)", "description": "as §1"}, "[11]": {"target": "STLK3 (Homo sapiens (Human), UniProt Q9UEW8)", "description": "as §1"}, "[12]": {"target": "LATS1 (Homo sapiens (Human), UniProt O95835)", "description": "as §1"}, "[13]": {"target": "CDK5 (Homo sapiens (Human), UniProt Q00535)", "description": "as §1"}, "[14]": {"target": "CaMK2g (Homo sapiens (Human), UniProt Q13555)", "description": "as §1"}, "[15]": {"system": "MST4, YSK1", "description": "as §1"}, "[16]": {"target": "SGK3 (Homo sapiens (Human), UniProt Q96BR1)", "description": "as §1"}, "[17]": {"target": "MST2 (Homo sapiens (Human), UniProt Q13188)", "description": "as §1"}, "[18]": {"target": "PFTAIRE1 (Homo sapiens (Human), UniProt O94921)", "sequence (O94921 whole entry)": "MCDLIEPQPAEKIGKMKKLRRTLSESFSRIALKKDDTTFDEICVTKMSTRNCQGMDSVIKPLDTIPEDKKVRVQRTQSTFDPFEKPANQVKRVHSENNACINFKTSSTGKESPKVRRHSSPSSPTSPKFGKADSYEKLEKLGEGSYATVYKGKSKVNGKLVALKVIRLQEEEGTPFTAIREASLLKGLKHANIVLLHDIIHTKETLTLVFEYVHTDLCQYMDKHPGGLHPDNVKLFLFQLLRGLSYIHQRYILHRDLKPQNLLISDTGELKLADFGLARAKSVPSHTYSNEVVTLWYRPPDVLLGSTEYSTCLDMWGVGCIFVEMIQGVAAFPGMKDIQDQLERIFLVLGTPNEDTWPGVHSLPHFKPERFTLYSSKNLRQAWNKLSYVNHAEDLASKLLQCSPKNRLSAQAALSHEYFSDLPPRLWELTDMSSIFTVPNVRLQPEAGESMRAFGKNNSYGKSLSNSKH", "sequence (Q8ND76 whole entry partner)": "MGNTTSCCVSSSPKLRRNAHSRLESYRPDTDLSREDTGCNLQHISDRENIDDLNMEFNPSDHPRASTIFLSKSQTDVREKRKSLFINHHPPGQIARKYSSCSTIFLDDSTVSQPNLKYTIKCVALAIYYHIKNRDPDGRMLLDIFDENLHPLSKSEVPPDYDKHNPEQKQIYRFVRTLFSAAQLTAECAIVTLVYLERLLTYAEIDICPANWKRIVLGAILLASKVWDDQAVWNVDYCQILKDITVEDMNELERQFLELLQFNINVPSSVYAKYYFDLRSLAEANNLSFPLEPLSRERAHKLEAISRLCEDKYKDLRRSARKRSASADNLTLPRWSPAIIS", "description": "as §1"}, "[19]": {"target": "MAP3K5 (Homo sapiens (Human), UniProt Q99683)", "sequence (Q99683 whole entry)": "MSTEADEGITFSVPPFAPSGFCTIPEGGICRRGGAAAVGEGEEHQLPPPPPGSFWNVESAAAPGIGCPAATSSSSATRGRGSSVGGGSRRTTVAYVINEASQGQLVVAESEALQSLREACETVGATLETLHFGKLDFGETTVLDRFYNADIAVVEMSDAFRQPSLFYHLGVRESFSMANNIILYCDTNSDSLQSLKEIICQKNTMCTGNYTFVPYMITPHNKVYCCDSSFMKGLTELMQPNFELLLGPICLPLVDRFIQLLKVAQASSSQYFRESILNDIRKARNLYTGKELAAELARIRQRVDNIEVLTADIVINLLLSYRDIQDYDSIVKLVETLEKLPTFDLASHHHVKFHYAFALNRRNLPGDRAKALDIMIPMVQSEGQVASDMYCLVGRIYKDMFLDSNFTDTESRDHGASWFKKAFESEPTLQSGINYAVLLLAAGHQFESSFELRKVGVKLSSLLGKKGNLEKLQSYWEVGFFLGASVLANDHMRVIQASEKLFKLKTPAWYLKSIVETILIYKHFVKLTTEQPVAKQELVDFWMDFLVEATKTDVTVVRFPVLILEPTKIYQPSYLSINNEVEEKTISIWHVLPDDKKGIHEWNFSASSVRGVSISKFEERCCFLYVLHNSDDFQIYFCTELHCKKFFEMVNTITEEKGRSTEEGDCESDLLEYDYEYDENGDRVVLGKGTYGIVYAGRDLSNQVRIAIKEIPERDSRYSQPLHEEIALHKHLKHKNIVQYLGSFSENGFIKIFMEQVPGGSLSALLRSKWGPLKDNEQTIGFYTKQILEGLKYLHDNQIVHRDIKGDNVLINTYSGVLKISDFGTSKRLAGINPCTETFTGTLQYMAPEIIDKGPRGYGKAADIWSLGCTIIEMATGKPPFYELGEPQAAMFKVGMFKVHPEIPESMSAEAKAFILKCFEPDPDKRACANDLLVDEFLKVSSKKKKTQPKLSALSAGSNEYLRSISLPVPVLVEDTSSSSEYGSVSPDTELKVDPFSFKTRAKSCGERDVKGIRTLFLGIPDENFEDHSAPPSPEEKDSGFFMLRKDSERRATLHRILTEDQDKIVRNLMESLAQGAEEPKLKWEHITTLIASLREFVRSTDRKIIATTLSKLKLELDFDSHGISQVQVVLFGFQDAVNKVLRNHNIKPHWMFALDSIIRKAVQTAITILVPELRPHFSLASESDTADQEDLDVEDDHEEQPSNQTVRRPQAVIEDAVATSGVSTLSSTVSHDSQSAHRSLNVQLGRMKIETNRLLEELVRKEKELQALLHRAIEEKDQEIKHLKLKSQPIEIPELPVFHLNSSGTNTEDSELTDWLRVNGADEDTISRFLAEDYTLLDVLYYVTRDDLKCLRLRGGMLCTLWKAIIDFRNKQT", "description": "as §1"}, "[20]": {"target": "PKR (Homo sapiens (Human), UniProt P19525)", "sequence (P19525 whole entry)": "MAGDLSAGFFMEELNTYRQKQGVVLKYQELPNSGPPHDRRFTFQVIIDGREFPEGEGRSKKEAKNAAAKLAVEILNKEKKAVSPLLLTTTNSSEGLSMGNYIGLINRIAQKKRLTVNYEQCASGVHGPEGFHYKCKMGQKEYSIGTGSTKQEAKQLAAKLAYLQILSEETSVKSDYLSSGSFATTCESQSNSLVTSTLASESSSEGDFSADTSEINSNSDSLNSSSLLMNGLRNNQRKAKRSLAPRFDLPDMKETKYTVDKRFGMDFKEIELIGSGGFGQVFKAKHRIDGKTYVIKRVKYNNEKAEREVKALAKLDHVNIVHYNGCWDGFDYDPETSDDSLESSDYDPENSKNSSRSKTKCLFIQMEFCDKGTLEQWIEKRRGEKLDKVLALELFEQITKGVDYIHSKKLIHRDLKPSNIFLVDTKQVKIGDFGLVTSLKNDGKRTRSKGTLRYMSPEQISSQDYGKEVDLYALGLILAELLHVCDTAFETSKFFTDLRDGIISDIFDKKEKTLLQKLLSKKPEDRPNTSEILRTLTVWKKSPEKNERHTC", "description": "as §1"}, "[21]": {"target": "FRAP (Homo sapiens (Human), UniProt P42345)", "description": "as §1"}, "[22]": {"target": "ACK (Homo sapiens (Human), UniProt Q07912)", "description": "as §1"}, "[23]": {"target": "NEK4 (Homo sapiens (Human), UniProt P51957)", "description": "as §1"}, "[24]": {"system": "NEK6, NEK7", "description": "as §1"}, "[25]": {"target": "MPSK1 (Homo sapiens (Human), UniProt O75716)", "sequence (O75716 whole entry)": "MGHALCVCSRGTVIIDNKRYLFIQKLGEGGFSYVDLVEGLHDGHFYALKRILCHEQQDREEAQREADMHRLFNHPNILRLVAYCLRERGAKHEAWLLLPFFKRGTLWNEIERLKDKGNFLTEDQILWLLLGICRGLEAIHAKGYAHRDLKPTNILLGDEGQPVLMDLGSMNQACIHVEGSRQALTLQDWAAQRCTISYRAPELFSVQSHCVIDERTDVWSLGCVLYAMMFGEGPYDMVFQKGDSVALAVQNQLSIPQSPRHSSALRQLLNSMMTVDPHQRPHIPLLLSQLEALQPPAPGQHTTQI", "description": "as §1"}, "[26]": {"target": "JAK1 domain1 (Homo sapiens (Human), UniProt P23458)", "description": "as §1"}, "[27]": {"target": "CDC2 (Homo sapiens (Human), UniProt P06493)", "description": "as §1"}, "[28]": {"target": "IKKa (Homo sapiens (Human), UniProt O15111)", "description": "as §1"}, "[29]": {"target": "STLK5 (Homo sapiens (Human), UniProt Q7RTN6)", "description": "as §1"}, "[30]": {"target": "CK1g3 (Homo sapiens (Human), UniProt Q9Y6M4)", "description": "as §1"}, "[31]": {"system": "JNK1, JNK2, JNK3", "description": "as §1"}, "[32]": {"target": "ULK1 (Homo sapiens (Human), UniProt O75385)", "sequence (O75385 whole entry)": "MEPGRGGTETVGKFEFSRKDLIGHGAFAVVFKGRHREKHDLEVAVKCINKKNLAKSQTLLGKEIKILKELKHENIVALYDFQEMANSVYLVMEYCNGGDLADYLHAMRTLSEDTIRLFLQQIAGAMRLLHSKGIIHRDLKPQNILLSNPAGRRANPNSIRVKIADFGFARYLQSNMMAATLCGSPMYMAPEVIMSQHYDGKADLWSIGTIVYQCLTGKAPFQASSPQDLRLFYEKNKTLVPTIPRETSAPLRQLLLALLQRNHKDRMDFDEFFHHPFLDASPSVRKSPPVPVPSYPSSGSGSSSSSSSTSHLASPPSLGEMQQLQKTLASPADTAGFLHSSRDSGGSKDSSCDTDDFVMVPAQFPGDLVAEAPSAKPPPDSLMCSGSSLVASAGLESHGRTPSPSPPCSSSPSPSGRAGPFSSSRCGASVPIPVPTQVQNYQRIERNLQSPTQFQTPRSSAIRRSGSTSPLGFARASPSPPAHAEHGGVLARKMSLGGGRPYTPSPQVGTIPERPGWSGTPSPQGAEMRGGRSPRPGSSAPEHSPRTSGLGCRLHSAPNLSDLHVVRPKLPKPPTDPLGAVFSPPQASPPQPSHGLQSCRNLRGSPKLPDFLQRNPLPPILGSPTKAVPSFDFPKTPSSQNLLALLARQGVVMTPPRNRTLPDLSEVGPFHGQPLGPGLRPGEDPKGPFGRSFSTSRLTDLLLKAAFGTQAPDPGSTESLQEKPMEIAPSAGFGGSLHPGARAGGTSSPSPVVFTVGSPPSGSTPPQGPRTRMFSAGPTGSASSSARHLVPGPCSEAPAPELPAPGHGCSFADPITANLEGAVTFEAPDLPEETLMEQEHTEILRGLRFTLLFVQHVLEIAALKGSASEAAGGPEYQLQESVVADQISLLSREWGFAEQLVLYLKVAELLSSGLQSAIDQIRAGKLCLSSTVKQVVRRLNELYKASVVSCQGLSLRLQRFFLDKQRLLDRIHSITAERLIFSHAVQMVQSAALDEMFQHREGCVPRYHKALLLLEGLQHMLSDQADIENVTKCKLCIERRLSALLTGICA", "description": "as §1"}, "[33]": {"target": "PKCi (Homo sapiens (Human), UniProt P41743)", "description": "as §1"}, "[34]": {"conditions": "range class, read-out: % inhibition"}},
  "note": "Where two headings read alike, the source gives them in different places.",
  "data": [
    {"smiles": "COc1cc(NS(=O)(=O)C2CC2)ccc1-c1cnc(N)c(-c2ccc3c(c2)CCNC3=O)c1", "note": "[Compound I-50, N-(4-(6-amino-5-(1-oxo-1,2,3,4-tetrahydroisoquinolin-6-yl)pyridin-3-yl)-3-methoxyphenyl) cyclopropanesulfonamide]", "values": [
      {"measurement": "inhibition at 10 µM", "setting": "[1]; [34]", "value": 0, "unit": "%"},
      {"measurement": "inhibition at 10 µM", "setting": "[1]; read-out: inhibition (10 μM)", "value": -74.9, "unit": "%"},
      {"measurement": "inhibition at 10 µM", "setting": "[2]; [34]", "value": 0, "unit": "%"},
      {"measurement": "inhibition at 10 µM", "setting": "[2]; read-out: inhibition (10 μM)", "value": 6.3, "unit": "%"},
      {"measurement": "% inhibition", "setting": "[3]; 10 μM, range class", "value": ">90", "unit": "%"},
      {"measurement": "inhibition (10 μM)", "setting": "[3]", "value": 96.3, "unit": "%"},
      {"measurement": "inhibition at 10 µM", "setting": "[4]; [34]", "value": 0, "unit": "%"},
      {"measurement": "inhibition at 10 µM", "setting": "[4]; read-out: inhibition (10 μM)", "value": 19.6, "unit": "%"},
      {"measurement": "inhibition at 10 µM", "setting": "[5]; [34]", "value": "75 to 90", "unit": "%"},
      {"measurement": "inhibition at 10 µM", "setting": "[5]; read-out: inhibition (10 μM)", "value": 81.1, "unit": "%"},
      {"measurement": "inhibition at 10 µM", "setting": "[6]; [34]", "value": 0, "unit": "%"},
      {"measurement": "inhibition at 10 µM", "setting": "[6]; read-out: inhibition (10 μM)", "value": 9.7, "unit": "%"},
      {"measurement": "inhibition at 10 µM", "setting": "[7]; [34]", "value": "75 to 90", "unit": "%"},
      {"measurement": "inhibition at 10 µM", "setting": "[7]; read-out: inhibition (10 μM)", "value": 77.8, "unit": "%"},
      {"measurement": "inhibition at 10 µM", "setting": "[8]; [34]", "value": 0, "unit": "%"},
      {"measurement": "inhibition at 10 µM", "setting": "[8]; read-out: inhibition (10 μM)", "value": 16.6, "unit": "%"},
      {"measurement": "inhibition at 10 µM", "setting": "[9]; [34]", "value": "75 to 90", "unit": "%"},
      {"measurement": "inhibition at 10 µM", "setting": "[9]; read-out: inhibition (10 μM)", "value": 88.3, "unit": "%"},
      {"measurement": "inhibition at 10 µM", "setting": "[10]; [34]", "value": 0, "unit": "%"},
      {"measurement": "inhibition at 10 µM", "setting": "[10]; read-out: inhibition (10 μM)", "value": -12.1, "unit": "%"},
      {"measurement": "inhibition at 10 µM", "setting": "[11]; [34]", "value": 0, "unit": "%"},
      {"measurement": "inhibition at 10 µM", "setting": "[11]; read-out: inhibition (10 μM)", "value": -12.3, "unit": "%"},
      {"measurement": "inhibition at 10 µM", "setting": "[12]; [34]", "value": 0, "unit": "%"},
      {"measurement": "inhibition at 10 µM", "setting": "[12]; read-out: inhibition (10 μM)", "value": 2.9, "unit": "%"},
      {"measurement": "inhibition at 10 µM", "setting": "[13]; [34]", "value": 0, "unit": "%"},
      {"measurement": "inhibition at 10 µM", "setting": "[13]; read-out: inhibition (10 μM)", "value": 11.3, "unit": "%"},
      {"measurement": "inhibition at 10 µM", "setting": "[14]; [34]", "value": 0, "unit": "%"},
      {"measurement": "inhibition at 10 µM", "setting": "[14]; read-out: inhibition (10 μM)", "value": 15.6, "unit": "%"},
      {"measurement": "% inhibition", "setting": "[15]; 10 μM, range class", "value": "35-40%"},
      {"measurement": "inhibition (10 μM)", "setting": "[15]", "value": 35.4, "unit": "%"},
      {"measurement": "inhibition at 10 µM", "setting": "[16]; [34]", "value": 0, "unit": "%"},
      {"measurement": "inhibition at 10 µM", "setting": "[16]; read-out: inhibition (10 μM)", "value": 11.2, "unit": "%"},
      {"measurement": "inhibition at 10 µM", "setting": "[17]; [34]", "value": "> 90", "unit": "%"},
      {"measurement": "inhibition at 10 µM", "setting": "[17]; read-out: inhibition (10 μM)", "value": 97.5, "unit": "%"},
      {"measurement": "inhibition at 10 µM", "setting": "[18]; [34]", "value": 0, "unit": "%"},
      {"measurement": "inhibition at 10 µM", "setting": "[18]; read-out: inhibition (10 μM)", "value": -2.4, "unit": "%"},
      {"measurement": "inhibition at 10 µM", "setting": "[19]; [34]", "value": 0, "unit": "%"},
      {"measurement": "inhibition at 10 µM", "setting": "[19]; read-out: inhibition (10 μM)", "value": 27.5, "unit": "%"},
      {"measurement": "inhibition at 10 µM", "setting": "[20]; [34]", "value": 0, "unit": "%"},
      {"measurement": "inhibition at 10 µM", "setting": "[20]; read-out: inhibition (10 μM)", "value": 1.8, "unit": "%"},
      {"measurement": "inhibition at 10 µM", "setting": "[21]; [34]", "value": 0, "unit": "%"},
      {"measurement": "inhibition at 10 µM", "setting": "[21]; read-out: inhibition (10 μM)", "value": 21.5, "unit": "%"},
      {"measurement": "inhibition at 10 µM", "setting": "[22]; [34]", "value": 0, "unit": "%"},
      {"measurement": "inhibition at 10 µM", "setting": "[22]; read-out: inhibition (10 μM)", "value": 11.3, "unit": "%"},
      {"measurement": "inhibition at 10 µM", "setting": "[23]; [34]", "value": 0, "unit": "%"},
      {"measurement": "inhibition at 10 µM", "setting": "[23]; read-out: inhibition (10 μM)", "value": 25.1, "unit": "%"},
      {"measurement": "% inhibition", "setting": "[24]; 10 μM, range class", "value": 0.0, "unit": "%"},
      {"measurement": "inhibition (10 μM)", "setting": "[24]", "value": "−54.5", "unit": "%"},
      {"measurement": "inhibition at 10 µM", "setting": "[25]; [34]", "value": 0, "unit": "%"},
      {"measurement": "inhibition at 10 µM", "setting": "[25]; read-out: inhibition (10 μM)", "value": 15.7, "unit": "%"},
      {"measurement": "inhibition at 10 µM", "setting": "[26]; [34]", "value": 0, "unit": "%"},
      {"measurement": "inhibition at 10 µM", "setting": "[26]; read-out: inhibition (10 μM)", "value": -19.8, "unit": "%"},
      {"measurement": "inhibition at 10 µM", "setting": "[27]; [34]", "value": 0, "unit": "%"},
      {"measurement": "inhibition at 10 µM", "setting": "[27]; read-out: inhibition (10 μM)", "value": 13.7, "unit": "%"},
      {"measurement": "inhibition at 10 µM", "setting": "[28]; [34]", "value": 0, "unit": "%"},
      {"measurement": "inhibition at 10 µM", "setting": "[28]; read-out: inhibition (10 μM)", "value": -1.9, "unit": "%"},
      {"measurement": "inhibition at 10 µM", "setting": "[29]; [34]", "value": 0, "unit": "%"},
      {"measurement": "inhibition at 10 µM", "setting": "[29]; read-out: inhibition (10 μM)", "value": -22.3, "unit": "%"},
      {"measurement": "inhibition at 10 µM", "setting": "[30]; [34]", "value": "75 to 90", "unit": "%"},
      {"measurement": "inhibition at 10 µM", "setting": "[30]; read-out: inhibition (10 μM)", "value": 77.1, "unit": "%"},
      {"measurement": "% inhibition", "setting": "[31]; 10 μM, range class", "value": 0.0, "unit": "%"},
      {"measurement": "inhibition (10 μM)", "setting": "[31]", "value": 26.8, "unit": "%"},
      {"measurement": "inhibition at 10 µM", "setting": "[32]; [34]", "value": 0, "unit": "%"},
      {"measurement": "inhibition at 10 µM", "setting": "[32]; read-out: inhibition (10 μM)", "value": 28.8, "unit": "%"},
      {"measurement": "inhibition at 10 µM", "setting": "[33]; [34]", "value": 0, "unit": "%"},
      {"measurement": "inhibition at 10 µM", "setting": "[33]; read-out: inhibition (10 μM)", "value": -15, "unit": "%"}
    ]}
  ]
}
